Molecular target: T1, human H-PGDS (Homo sapiens, UniProt O60760)
T1 construct: Full length human H-PGDS cDNA (Invitrogen Ultimate ORF IOH13026) was amplified by PCR; 6-His (N); TEV protease cleavage site (N); made in house; host or cells: E. coli BL21 (DE3*) for H-PGDS; Sf9 insect cells (baculovirus) for COX-2
Test: H-PGDS RapidFire high throughput mass spectrometry assay
Assay type: biochemical
Settings: inhibition of conversion of PGH2 to PGD2 by H-PGDS; mean pIC50; read-out: Potency Range (mean pIC50) (converted)
Protocol: H-PGDS RapidFire™ High Throughput Mass Spectrometry Assay
The H-PGDS RapidFire™ mass spectrometric assay monitors conversion of prostaglandin H2 (PGH2) to prostaglandin D2 (PGD2) by haematopoietic prostaglandin D synthase (H-PGDS). In the assay format described here, the substrate (PGH2) is formed in situ by the action of cyclooxygenase-2 on arachidonic acid. This first step is set up to be fast, and generates a burst of PGH2 at ˜10 μM. The PGH2 is then further converted to PGD2 by the H-PGDS enzyme. […] Plates are then read on the RapidFire™ high throughput solid phase extraction system (Agilent) which incorporates a solid phase extraction step coupled to a triple quadrupole mass spectrometer (AB SCIEX). Relative levels of PGD2 and PGF2α, which acts as a surrogate for substrate, are measured and a percent conversion calculated. Inhibitors are characterised as compounds which lower the conversion of PGH2 to PGD2.
Full length human H-PGDS cDNA (Invitrogen Ultimate ORF IOH13026) was amplified by PCR with the addition of a 5′ 6-His tag and TEV protease cleavage site. The PCR product was digested with NdeI and XhoI and ligated into pET22b+ (Merck Novagen®). Expression was carried out in E. coli strain BL21 (DE3*) using auto-induction Overnight Express™ Instant TB medium (Merck Novagen®) supplemented with 1% glycerol. The culture was first grown at 37° C. and the temperature was reduced to 25° C. when OD600 reached 2.0. Cells were harvested by centrifugation after a further 18 hours. 10 g of E. coli cell pellet was suspended to a total volume of 80 mL in lysis buffer (20 mM Tris-Cl pH 7.5, 300 mM NaCl, 20 mM imidazole, 5 mM p-mercaptoethanol, 10% glycerol). 1 mg/mL protease inhibitors (Protease Inhibitor Cocktail Set III, Merck Calbiochem®) and 1 mg/mL lysozyme were added to the cell suspension. The suspension was then sonicated for 5 min (UltraSonic Processor VCX 750, Cole-Parmer Instrument Co.) with a micro probe (50% amplitude, 10 sec on/off) and then centrifuged at 100,000 g for 90 minutes (at 4° C.). The supernatant was loaded onto a Ni-NTA HiTrap column (5 mL, GE Healthcare, pre-equilibrated in lysis buffer). The column was washed with 10 column volumes of lysis buffer and eluted with lysis buffer containing 500 mM imidazole. The pooled protein peak fractions were concentrated using a 10 kDa centrifugal filter at 3500 g and 4° C. (Amicon Ultra-15 centrifugal filter unit with Ultracel-10 membrane from Millipore). Further purification of the concentrated protein was carried out using gel filtration chromatography on a HiLoad 26/600 Superdex 75 preparative grade column (GE Healthcare Life Sciences) using 50 mM Tris pH 7.5, 50 mM NaCl, 1 mM dithiothreitol, 1 mM MgCl2. Fractions containing the protein were pooled, concentrated as described above, and stored at −80° C.
The full length human COX-2 gene (accession number L15326) was amplified by PCR to generate an EcoRI—HindIII fragment containing an in-frame FLAG tag. This was subcloned into pFastBac 1 (Invitrogen). The COX-2 FLAG plasmid was recombined into the baculovirus genome according to the BAC-to-BAC protocol described by Invitrogen. Transfection into Spodoptera frugiperda (Sf9) insect cells was performed using Cellfectin (Invitrogen), according to the manufacturer's protocol. Super Sf9 cells were cultured in EX420 media (SAFC Biosciences) to a density of approximately 1.5×10^6 cells/mL within a wave bioreactor. Recombinant virus was added at a Multiplicity of Infection (MOI) of 5 and the culture was allowed to continue for 3 days. Cells were harvested using a continuous feed centrifuge run at 2500 g at a rate of approximately 2 L/min with cooling. The resultant cell slurry was re-centrifuged in pots (2500 g, 20 min, 4° C.) and the cell paste was stored at −80° C. […]

T1 sequence (O60760 whole entry): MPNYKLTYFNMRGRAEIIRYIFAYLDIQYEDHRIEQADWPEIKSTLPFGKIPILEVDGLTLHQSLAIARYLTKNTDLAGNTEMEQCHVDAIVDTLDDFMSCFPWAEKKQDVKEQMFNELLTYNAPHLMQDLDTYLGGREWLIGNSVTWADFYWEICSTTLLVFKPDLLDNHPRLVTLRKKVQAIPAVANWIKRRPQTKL

Compound	IC50
O=C(NC1CCNC1=O)c1cnc(-c2cccc(Cl)c2)s1 (racemic) [Example 2, Racemic 2-(3-Chlorophenyl)-N-(2-oxopyrrolidin-3-yl)thiazole-5-carboxamide]	0.0102 to 0.1 µM
CC1(C)CC(NC(=O)c2cnc(-c3cc(F)cc(Cl)c3)s2)C(=O)N1 (racemic) [Example 14, Racemic 2-(3-Chloro-5-fluorophenyl)-N-(5,5-dimethyl-2-oxopyrrolidin-3-yl)thiazole-5-carboxamide]	0.0102 to 0.1 µM
CC1(C)CC(NC(=O)c2cnc(-c3cc(F)cc(C(F)F)c3)s2)C(=O)N1 (racemic) [Example 18, Racemic 2-(3-(Difluoromethyl)-5-fluorophenyl)-N-(5,5-dimethyl-2-oxopyrrolidin-3-yl)thiazole-5-carboxamide]	0.0102 to 0.1 µM
O=C(NC1CC2(CC2)NC1=O)c1cnc(-c2cc(F)cc(Cl)c2)s1 (racemic) [Example 20, Racemic 2-(3-Chloro-5-fluorophenyl)-N-(5-oxo-4-azaspiro[2.4]heptan-6-Yl)thiazole-5-carboxamide]	0.0102 to 0.1 µM
CCC1(CC)CNC(=O)C1NC(=O)c1cnc(-c2cc(F)cc(Cl)c2)s1 (racemic) [Example 23, Racemic 2-(3-Chloro-5-fluorophenyl)-N-(4,4-diethyl-2-oxopyrrolidin-3-yl)thiazole-5-carboxamide]	0.102 to 1 µM
O=C(NC1CC2(CCC2)NC1=O)c1cnc(-c2cc(F)cc(Cl)c2)s1 (racemic) [Example 27, Racemic 2-(3-Chloro-5-fluorophenyl)-N-(6-oxo-5-azaspiro[3.4]octan-7-v)thiazole-5-carboxamide]	0.0102 to 0.1 µM
C[C@H]1[C@H](C)NC(=O)[C@@H]1NC(=O)c1cnc(-c2cc(F)cc(Cl)c2)s1 (racemic) [Example 34, Racemic 2-(3-Chloro-5-fluorophenyl)-N-((3R,4S,5S)-4,5-dimethyl-2-oxopyrrolidin-3-yl)thiazole-5-carboxamide; and 2-(3-Chloro-5-fluorophenyl)-N-((3S,4R,5R)-4,5-dimethyl-2-oxopyrrolidin-3-yl)thiazole-5-carboxamide]	0.0102 to 0.1 µM
O=C(N[C@H]1C(=O)N[C@@H]2CCC[C@@H]21)c1cnc(-c2cc(F)cc(Cl)c2)s1 (racemic) [Example 49, Racemic 2-(3-Chloro-5-fluorophenyl)-N-((3R,3aS,6aR)-2-oxooctahydrocyclopenta[b]pyrrol-3-yl)thiazole-5-carboxamide; and 2-(3-Chloro-5-fluorophenyl)-N-((3S,3aR,6aS)-2-oxooctahydrocyclopenta[b]pyrrol-3-yl)thiazole-5-carboxamide]	0.00102 to 0.01 µM
O=C(N[C@@H]1C(=O)N[C@H]2COC[C@H]21)c1cnc(-c2cc(F)cc(Cl)c2)s1 (racemic) [Example 52, Racemic 2-(3-Chloro-5-fluorophenyl)-N-((3S,3aR,6aR)-2-oxohexahydro-1H-furo[3,4-b]pyrrol-3-yl)thiazole-5-carboxamide; and 2-(3-Chloro-5-fluorophenyl)-N-((3R,3aS,6aS)-2-oxohexahydro-1H-furo[3,4-b]pyrrol-3-yl)thiazole-5-carboxamide]	0.0102 to 0.1 µM
O=C(NC1CC2(COC2)NC1=O)c1cnc(-c2cc(F)cc(Cl)c2)s1 (racemic) [Example 55, Racemic 2-(3-Chloro-5-fluorophenyl)-N-(6-oxo-2-oxa-5-azaspiro[3.4]octan-7-yl)thiazole-5-carboxamide]	0.00102 to 0.01 µM
O=C(N[C@H]1C(=O)N[C@H]2CCC[C@H]21)c1cnc(-c2cc(F)cc(Cl)c2)s1 (racemic) [Example 58, Racemic 2-(3-Chloro-5-fluorophenyl)-N-((3R,3aR,6aS)-2-oxooctahydrocyclopenta[b]pyrrol-3-yl)thiazole-5-carboxamide; and 2-(3-Chloro-5-fluorophenyl)-N-((3S,3aS,6aR)-2-oxooctahydrocyclopenta[b]pyrrol-3-yl)thiazole-5-carboxamide]	0.0102 to 0.1 µM
CN1CCC(NC(=O)c2cnc(-c3cc(F)cc(Cl)c3)s2)C1=O (racemic) [Example 63, Racemic 2-(3-Chloro-5-fluorophenyl)-N-(1-methyl-2-oxopyrrolidin-3-yl)thiazole-5-carboxamide]	0.0102 to 0.1 µM
